Test results from ChEMBL document CHEMBL3885861, “Open TG-GATES”.

Species on record: Rattus norvegicus
Test: Open TG-GATES - Regimen: Daily Repeat
Assay type: toxicity, organism-based, Sprague-Dawley
Parameters: regimen Daily Repeat, gender Male, age 6 weeks
Conditions: in vivo, po, route gavage; for APTT / Bas / Eos / Fbg / Hb / Ht / Lym / MCH / MCHC / MCV / Mono / Neu / PT / Plat / RBC / Ret / WBC: tissue Blood; for KIDNEY_L / KIDNEY_R / KIDNEY_TOTAL: tissue Kidney; for LIVER: tissue Liver; for ALP / AST / BUN / CRE / Ca / Cl / DBIL / GLC / IP / K / LDH / Na / PL / RALB / TBIL / TC / TG / TP / gamma-GTP: tissue Plasma
[1] = 0 mg/kg, 72 h, dose level Control, time 3 day
[2] = 0 mg/kg, […], dose level Control, time 7 day
[3] = 0 mg/kg, […], dose level Control, time 14 day
[4] = 0 mg/kg, […], dose level Control, time 28 day
[5] = 100 mg/kg, 72 h, dose level Low, time 3 day
[6] = 100 mg/kg, […], dose level Low, time 7 day
[7] = 100 mg/kg, […], dose level Low, time 14 day
[8] = 100 mg/kg, […], dose level Low, time 28 day

## COc1ccc2[nH]c([S+]([O-])Cc3ncc(C)c(OC)c3C)nc2c1 (configuration not stated) [OMEPRAZOLE]
[1]
  TERMINAL_BW: 237.1 g
  APTT: 19.5 s
  Bas: 0%
  Eos: 1.2%
  Fbg: 210.6 mg/dL
  Hb: 13.1 g/dL
  Ht: 38%
  Lym: 80.8%
  MCH: 21.2 pg
  MCHC: 34.4%
  MCV: 61.6 fL
  Mono: 3%
  Neu: 14.8%
  PT: 12.2 s
  Plat: 128.5 x10_4/uL
  RBC: 616.6 x10_4/ul
  Ret: 5.4%
  WBC: 91.3 x10_2/uL
  KIDNEY_L: 1 g
  KIDNEY_R: 1.1 g
  KIDNEY_TOTAL: 2.1 g
  LIVER: 11.7 g
  ALP: 960.2 IU/L
  AST: 66.4 IU/L
  BUN: 15.2 mg/dL
  CRE: 0.4 mg/dL
  Ca: 10.7 mg/dL
  Cl: 102.2 meq/L
  DBIL: 0.07 mg/dL
  GLC: 233.8 mg/dL
  IP: 7 mg/dL
  K: 3.6 meq/L
  LDH: 162.8 IU/L
  Na: 141.6 meq/L
  PL: 144.4 mg/dL
  RALB: 3.3 g/dL
  TBIL: 0.1 mg/dL
  TC: 72.2 mg/dL
  TG: 91.6 mg/dL
  TP: 5.6 g/dL
  gamma-GTP: 1.2 IU/L
[2]
  TERMINAL_BW: 272.8 g
  APTT: 20.8 s
  Bas: 0%
  Eos: 1%
  Fbg: 226.4 mg/dL
  Hb: 13.9 g/dL
  Ht: 40.3%
  Lym: 79.2%
  MCH: 20.8 pg
  MCHC: 34.5%
  MCV: 60.2 fL
  Mono: 3%
  Neu: 16.2%
  PT: 11.9 s
  Plat: 124.2 x10_4/uL
  RBC: 669.6 x10_4/ul
  Ret: 4.8%
  WBC: 124.1 x10_2/uL
  KIDNEY_L: 1.2 g
  KIDNEY_R: 1.2 g
  KIDNEY_TOTAL: 2.3 g
  LIVER: 13.4 g
  ALP: 908.8 IU/L
  AST: 73.8 IU/L
  BUN: 16.8 mg/dL
  CRE: 0.4 mg/dL
  Ca: 10.8 mg/dL
  Cl: 100.8 meq/L
  DBIL: 0.09 mg/dL
  GLC: 205.2 mg/dL
  IP: 7.3 mg/dL
  K: 3.9 meq/L
  LDH: 225.8 IU/L
  Na: 140 meq/L
  PL: 168.4 mg/dL
  RALB: 3.3 g/dL
  TBIL: 0.1 mg/dL
  TC: 78.8 mg/dL
  TG: 144.6 mg/dL
  TP: 5.7 g/dL
  gamma-GTP: 0.8 IU/L
[3]
  TERMINAL_BW: 317.5 g
  APTT: 19.5 s
  Bas: 0%
  Eos: 1%
  Fbg: 215.4 mg/dL
  Hb: 14.7 g/dL
  Ht: 42.6%
  Lym: 79%
  MCH: 20.8 pg
  MCHC: 34.6%
  MCV: 59.9 fL
  Mono: 2.6%
  Neu: 16.2%
  PT: 12.3 s
  Plat: 123.5 x10_4/uL
  RBC: 711 x10_4/ul
  Ret: 3.9%
  WBC: 94.4 x10_2/uL
  KIDNEY_L: 1.3 g
  KIDNEY_R: 1.3 g
  KIDNEY_TOTAL: 2.5 g
  LIVER: 13.5 g
  ALP: 734.6 IU/L
  AST: 61.4 IU/L
  BUN: 17.2 mg/dL
  CRE: 0.5 mg/dL
  Ca: 10.6 mg/dL
  Cl: 102 meq/L
  DBIL: 0.08 mg/dL
  GLC: 222.6 mg/dL
  IP: 6.5 mg/dL
  K: 3.4 meq/L
  LDH: 171 IU/L
  Na: 139.8 meq/L
  PL: 139.6 mg/dL
  RALB: 3.4 g/dL
  TBIL: 0.1 mg/dL
  TC: 69 mg/dL
  TG: 95.4 mg/dL
  TP: 5.7 g/dL
  gamma-GTP: 1 IU/L
[4]
  TERMINAL_BW: 379.8 g
  APTT: 20.9 s
  Bas: 0%
  Eos: 1%
  Fbg: 228.8 mg/dL
  Hb: 15.6 g/dL
  Ht: 45%
  Lym: 83.2%
  MCH: 19.4 pg
  MCHC: 34.8%
  MCV: 55.9 fL
  Mono: 2%
  Neu: 13%
  PT: 12.4 s
  Plat: 110.6 x10_4/uL
  RBC: 804.8 x10_4/ul
  Ret: 2.2%
  WBC: 102.7 x10_2/uL
  KIDNEY_L: 1.3 g
  KIDNEY_R: 1.3 g
  KIDNEY_TOTAL: 2.6 g
  LIVER: 14.7 g
  ALP: 583 IU/L
  AST: 64.8 IU/L
  BUN: 16.6 mg/dL
  CRE: 0.5 mg/dL
  Ca: 10.7 mg/dL
  Cl: 102.6 meq/L
  DBIL: 0.078 mg/dL
  GLC: 235.4 mg/dL
  IP: 5.8 mg/dL
  K: 3.8 meq/L
  LDH: 142.8 IU/L
  Na: 141.2 meq/L
  PL: 137.8 mg/dL
  RALB: 3.4 g/dL
  TBIL: 0.1 mg/dL
  TC: 67.8 mg/dL
  TG: 104.8 mg/dL
  TP: 6 g/dL
  gamma-GTP: 0.8 IU/L
[5]
  TERMINAL_BW: 240.6 g
  APTT: 19 s
  Bas: 0%
  Eos: 1%
  Fbg: 214.2 mg/dL
  Hb: 13.1 g/dL
  Ht: 38.3%
  Lym: 77%
  MCH: 21 pg
  MCHC: 34.2%
  MCV: 61.4 fL
  Mono: 3.4%
  Neu: 18.6%
  PT: 12.3 s
  Plat: 127.7 x10_4/uL
  RBC: 624 x10_4/ul
  Ret: 5.2%
  WBC: 119.7 x10_2/uL
  KIDNEY_L: 1.1 g
  KIDNEY_R: 1.1 g
  KIDNEY_TOTAL: 2.2 g
  LIVER: 12.4 g
  ALP: 887.8 IU/L
  AST: 67.8 IU/L
  BUN: 15.2 mg/dL
  CRE: 0.3 mg/dL
  Ca: 10.6 mg/dL
  Cl: 101.8 meq/L
  DBIL: 0.08 mg/dL
  GLC: 220.6 mg/dL
  IP: 8.8 mg/dL
  K: 3.8 meq/L
  LDH: 157.2 IU/L
  Na: 141.4 meq/L
  PL: 145 mg/dL
  RALB: 3.4 g/dL
  TBIL: 0.1 mg/dL
  TC: 72.6 mg/dL
  TG: 99.2 mg/dL
  TP: 5.6 g/dL
  gamma-GTP: 1.2 IU/L
[6]
  TERMINAL_BW: 271.5 g
  APTT: 20 s
  Bas: 0%
  Eos: 1%
  Fbg: 221 mg/dL
  Hb: 13.5 g/dL
  Ht: 39.5%
  Lym: 82%
  MCH: 20.7 pg
  MCHC: 34.2%
  MCV: 60.6 fL
  Mono: 3.4%
  Neu: 13.2%
  PT: 12.2 s
  Plat: 132.7 x10_4/uL
  RBC: 652 x10_4/ul
  Ret: 4.7%
  WBC: 114.9 x10_2/uL
  KIDNEY_L: 1.1 g
  KIDNEY_R: 1.1 g
  KIDNEY_TOTAL: 2.2 g
  LIVER: 13.3 g
  ALP: 805 IU/L
  AST: 65 IU/L
  BUN: 15.6 mg/dL
  CRE: 0.4 mg/dL
  Ca: 10.6 mg/dL
  Cl: 101.4 meq/L
  DBIL: 0.066 mg/dL
  GLC: 200.4 mg/dL
  IP: 8.3 mg/dL
  K: 4 meq/L
  LDH: 229.6 IU/L
  Na: 140.8 meq/L
  PL: 150 mg/dL
  RALB: 3.4 g/dL
  TBIL: 0.1 mg/dL
  TC: 77.8 mg/dL
  TG: 85.2 mg/dL
  TP: 5.7 g/dL
  gamma-GTP: 0.8 IU/L
[7]
  TERMINAL_BW: 323 g
  APTT: 20.2 s
  Bas: 0%
  Eos: 0.8%
  Fbg: 208.4 mg/dL
  Hb: 14.2 g/dL
  Ht: 40.8%
  Lym: 82.8%
  MCH: 20.5 pg
  MCHC: 34.7%
  MCV: 59.1 fL
  Mono: 2.2%
  Neu: 13.6%
  PT: 12.1 s
  Plat: 133 x10_4/uL
  RBC: 691 x10_4/ul
  Ret: 4.1%
  WBC: 101.4 x10_2/uL
  KIDNEY_L: 1.3 g
  KIDNEY_R: 1.3 g
  KIDNEY_TOTAL: 2.5 g
  LIVER: 14.7 g
  ALP: 771.6 IU/L
  AST: 66.4 IU/L
  BUN: 15.8 mg/dL
  CRE: 0.5 mg/dL
  Ca: 10.3 mg/dL
  Cl: 101.4 meq/L
  DBIL: 0.074 mg/dL
  GLC: 210.8 mg/dL
  IP: 7.9 mg/dL
  K: 3.7 meq/L
  LDH: 198.2 IU/L
  Na: 140.6 meq/L
  PL: 145.8 mg/dL
  RALB: 3.4 g/dL
  TBIL: 0.1 mg/dL
  TC: 73.4 mg/dL
  TG: 96.8 mg/dL
  TP: 5.8 g/dL
  gamma-GTP: 1 IU/L
[8]
  TERMINAL_BW: 390.5 g
  APTT: 21.2 s
  Bas: 0%
  Eos: 1.2%
  Fbg: 210.4 mg/dL
  Hb: 15.1 g/dL
  Ht: 43.9%
  Lym: 79.6%
  MCH: 18.6 pg
  MCHC: 34.3%
  MCV: 54.3 fL
  Mono: 2.2%
  Neu: 16.6%
  PT: 12.3 s
  Plat: 106.5 x10_4/uL
  RBC: 809.8 x10_4/ul
  Ret: 2.6%
  WBC: 100.5 x10_2/uL
  KIDNEY_L: 1.4 g
  KIDNEY_R: 1.3 g
  KIDNEY_TOTAL: 2.7 g
  LIVER: 16.4 g
  ALP: 538.6 IU/L
  AST: 59.2 IU/L
  BUN: 15.4 mg/dL
  CRE: 0.5 mg/dL
  Ca: 10.5 mg/dL
  Cl: 101.4 meq/L
  DBIL: 0.088 mg/dL
  GLC: 220 mg/dL
  IP: 7.3 mg/dL
  K: 3.6 meq/L
  LDH: 174.8 IU/L
  Na: 141.8 meq/L
  PL: 141 mg/dL
  RALB: 3.6 g/dL
  TBIL: 0.1 mg/dL
  TC: 69.2 mg/dL
  TG: 133 mg/dL
  TP: 6.2 g/dL
